In publication PMC4145669, “The structure, function and properties of sirohaem decarboxylase - an enzyme with structural homology to a transcription factor family that is part of the alternative haem biosynthesis pathway” (Molecular Microbiology, 2014):
Where two headings read alike, the source gives them in different places.

Molecular target: T1, D. desulfuricans AhbA/B (sirohaem decarboxylase) (Desulfovibrio desulfuricans, UniProt B8J364+B8J3A4)
T1 construct: gene Ddes_0286; full-length AhbA (untagged) and AhbB with N-terminal hexa-His tag (kept), coexpressed in E. coli; heterodimer, 40 kDa by gel filtration
T1 sequence (B8J364 1-173): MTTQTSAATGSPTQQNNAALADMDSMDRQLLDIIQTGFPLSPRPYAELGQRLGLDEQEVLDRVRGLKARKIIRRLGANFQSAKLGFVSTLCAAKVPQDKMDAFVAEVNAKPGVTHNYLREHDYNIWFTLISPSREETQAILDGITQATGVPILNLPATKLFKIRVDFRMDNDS
T1 sequence (B8J3A4 1-159): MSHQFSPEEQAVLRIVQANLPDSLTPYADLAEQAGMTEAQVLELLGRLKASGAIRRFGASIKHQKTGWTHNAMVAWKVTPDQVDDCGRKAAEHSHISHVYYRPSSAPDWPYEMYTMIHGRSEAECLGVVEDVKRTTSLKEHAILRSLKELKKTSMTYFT
Experiment: anaerobic stopped assay, MS quantification, global fit
Assay type: biochemical
Settings: competitive model of both substrates and product, single active site, 23 μM sirohaem, 2.3 μM enzyme

| Substance | Km (intermediate formed in situ from sirohaem, read-out: Km2) [µM] | Km (read-out: Km1) [µM] |
| --- | --- | --- |
| monodecarboxysirohaem [MDSH] | 9.94 ± 1.19 |  |
| sirohaem [SH] |  | 11.7 ± 3.36 |
